# Reference: article PMC5853465, “Use of D-glucose–fenpiclonil conjugate as a potent and specific inhibitor of sucrose carriers” (Journal of Experimental Botany, 2017)
# Target: T1, AtSUC2 (Arabidopsis thaliana, UniProt Q39231)
# T1 construct: gene SUC2; full coding region in plasmid pDR-R1-R2-HIS3 (derived from pDR 192), expressed in Saccharomyces cerevisiae RS453 cells
# T1 sequence (Q39231 1-512): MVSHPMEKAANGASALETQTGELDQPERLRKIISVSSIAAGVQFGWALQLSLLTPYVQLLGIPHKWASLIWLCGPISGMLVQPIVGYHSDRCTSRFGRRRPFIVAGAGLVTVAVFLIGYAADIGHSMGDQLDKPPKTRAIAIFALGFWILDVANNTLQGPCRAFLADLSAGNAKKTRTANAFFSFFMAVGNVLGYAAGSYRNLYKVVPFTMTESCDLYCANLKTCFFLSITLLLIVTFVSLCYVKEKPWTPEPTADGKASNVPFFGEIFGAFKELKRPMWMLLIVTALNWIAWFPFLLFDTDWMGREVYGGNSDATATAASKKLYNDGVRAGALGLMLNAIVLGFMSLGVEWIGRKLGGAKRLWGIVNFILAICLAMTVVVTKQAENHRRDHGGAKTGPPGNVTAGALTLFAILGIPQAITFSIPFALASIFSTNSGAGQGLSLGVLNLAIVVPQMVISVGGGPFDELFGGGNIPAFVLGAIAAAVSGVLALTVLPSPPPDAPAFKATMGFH
# Assay: […]sucrose uptake into AtSUC2-transformed yeast, empty vector subtracted
# Assay type: cell-based
# Conditions: read-out: Inibition^b (%)
structure (smiles),measurement,value
"CC(C(=O)NCc1cn([C@@H]2O[C@H](CO)[C@@H](O)[C@H](O)[C@H]2O)nn1)n1cc(C#N)c(-c2cccc(Cl)c2Cl)c1 (stereo partly drawn) [D-GFC, D-glucose–fenpiclonil conjugate]",inhibition at 500 µM,81.5%
